Data reported in article PMC8159961, “Exploring protein hotspots by optimized fragment pharmacophores” (Nature Communications, 2021).

How the values were obtained:
human 5-HT1A receptor = target: T1, human 5-HT1A receptor (Homo sapiens, UniProt P08908); test: GPCR radioligand binding assay, [3H]-8-OH-DPAT displacement, HEK293 membranes; settings: for 5-HT1A % Inhibition by plate position: 10 µM; for %inh 5-HT1A average: average of exp_1 and exp_2; for %inh 5-HT1A exp_1: replicate exp_1; for %inh 5-HT1A exp_2: replicate exp_2; for %inh 5-HT1A corrected*: average, values below 0 and above 100% were set as 0 and 100
T1 construct: expressed in transfected cells
T1 sequence (P08908 1-422): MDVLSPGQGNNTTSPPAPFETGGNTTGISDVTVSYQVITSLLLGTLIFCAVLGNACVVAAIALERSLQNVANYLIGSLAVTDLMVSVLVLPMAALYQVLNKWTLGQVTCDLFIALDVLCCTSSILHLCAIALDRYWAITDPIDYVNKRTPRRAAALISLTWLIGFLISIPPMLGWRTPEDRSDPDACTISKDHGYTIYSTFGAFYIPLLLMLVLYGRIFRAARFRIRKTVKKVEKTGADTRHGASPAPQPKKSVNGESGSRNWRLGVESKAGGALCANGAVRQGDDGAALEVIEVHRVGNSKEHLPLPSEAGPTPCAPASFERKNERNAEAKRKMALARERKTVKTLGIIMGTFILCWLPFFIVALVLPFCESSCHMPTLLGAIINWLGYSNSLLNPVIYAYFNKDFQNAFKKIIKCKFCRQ

human 5-HT7b receptor = target: T2, human 5-HT7b receptor (Homo sapiens, UniProt P34969); test: GPCR radioligand binding assay, [3H]-5-CT displacement, HEK293 membranes; settings: for 5-HT7 % Inhibition by plate position: 10 µM; for %inh 5-HT7 exp_1: replicate exp_1; for %inh 5-HT7 exp_2: replicate exp_2; for %inh 5-HT7 average: average of exp_1 and exp_2
T2 construct: expressed in transfected cells
T2 sequence (P34969 1-432): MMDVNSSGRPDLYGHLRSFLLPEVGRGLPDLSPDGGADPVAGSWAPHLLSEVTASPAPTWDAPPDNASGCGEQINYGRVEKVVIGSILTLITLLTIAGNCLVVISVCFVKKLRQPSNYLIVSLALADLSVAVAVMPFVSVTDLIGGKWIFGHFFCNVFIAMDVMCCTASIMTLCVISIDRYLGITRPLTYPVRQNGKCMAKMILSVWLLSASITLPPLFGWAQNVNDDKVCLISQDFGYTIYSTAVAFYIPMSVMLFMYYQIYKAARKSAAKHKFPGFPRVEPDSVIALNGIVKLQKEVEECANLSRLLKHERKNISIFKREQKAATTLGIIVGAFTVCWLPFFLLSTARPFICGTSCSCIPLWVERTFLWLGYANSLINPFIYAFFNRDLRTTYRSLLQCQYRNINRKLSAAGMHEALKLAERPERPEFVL

human 5-HT6 receptor = target: T3, human 5-HT6 receptor (Homo sapiens, UniProt P50406); test: GPCR radioligand binding assay, [3H]-LSD displacement, HEK293 membranes; settings: for 5-HT6 % Inhibition by plate position: 10 µM; for %inh 5-HT6 average: average of exp_1 and exp_2; for %inh 5-HT6 corrected*: average, values below 0 and above 100% were set as 0 and 100; for %inh 5-HT6 exp_1: replicate exp_1; for %inh 5-HT6 exp_2: replicate exp_2
T3 construct: expressed in transfected cells
T3 sequence (P50406 whole entry): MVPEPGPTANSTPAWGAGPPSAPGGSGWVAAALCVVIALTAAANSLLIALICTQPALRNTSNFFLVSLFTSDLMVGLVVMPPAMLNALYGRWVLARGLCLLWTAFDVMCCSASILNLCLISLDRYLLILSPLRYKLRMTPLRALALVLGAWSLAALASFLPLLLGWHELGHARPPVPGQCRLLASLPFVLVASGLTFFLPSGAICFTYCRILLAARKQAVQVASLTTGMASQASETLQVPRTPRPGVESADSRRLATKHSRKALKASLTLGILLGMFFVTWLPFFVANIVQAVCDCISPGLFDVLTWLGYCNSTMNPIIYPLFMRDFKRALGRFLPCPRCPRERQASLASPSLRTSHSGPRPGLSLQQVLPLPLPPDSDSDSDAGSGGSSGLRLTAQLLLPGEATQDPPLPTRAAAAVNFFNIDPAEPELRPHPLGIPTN

| Structure (SMILES) | 5-HT1A % Inhibition by plate position (human 5-HT1A receptor) | %inh 5-HT1A average (human 5-HT1A receptor) | %inh 5-HT1A exp_1 (human 5-HT1A receptor) | %inh 5-HT1A exp_2 (human 5-HT1A receptor) | 5-HT7 % Inhibition by plate position (human 5-HT7b receptor) | %inh 5-HT7 exp_1 (human 5-HT7b receptor) | %inh 5-HT7 exp_2 (human 5-HT7b receptor) | 5-HT6 % Inhibition by plate position (human 5-HT6 receptor) | %inh 5-HT6 average (human 5-HT6 receptor) | %inh 5-HT6 corrected* (human 5-HT6 receptor) | %inh 5-HT6 exp_1 (human 5-HT6 receptor) | %inh 5-HT6 exp_2 (human 5-HT6 receptor) | %inh 5-HT1A corrected* (human 5-HT1A receptor) | %inh 5-HT7 average (human 5-HT7b receptor) |
| --- | --- | --- | --- | --- | --- | --- | --- | --- | --- | --- | --- | --- | --- | --- |
| CS(=O)(=O)c1ccc(OC(F)(F)F)cc1 [B8] | 0% | -30% | -20% | -40% | 6% | 3.74% | 8% | 4% | 4% | 4% | 0% | 8% | – | – |
| Oc1cnc(-c2ccccc2)nc1 [F11] | – | 6.48% | 14% | -1.43% | 0.572% | -8% | 9% | 41% | 41% | 41% | 42% | 39% | 6.48% | – |
| Cc1nc(-c2ccccc2)cs1 [A7] | 0% | -4.34% | -13% | 4% | 0% | -4% | 3.71% | 50% | 50% | 50% | 50% | 50% | – | -0.168% |
| c1cnc2c(c1)NCCC2 [E7] | – | 12% | 15% | 9% | 0% | 6% | -14% | 28% | 28% | 28% | 28% | 29% | 12% | -3.73% |
| Cn1c(CO)nc2ccccc21 [G2] | 0% | -5% | 12% | -22% | 5% | 10% | 0.167% | 37% | 37% | 37% | 37% | 38% | – | – |
| Cc1cc(C)c2c(=O)[nH]n(C)c2n1 [F12] | – | 5.64% | 4.73% | 6.55% | 11% | 14% | 7% | 34% | 34% | 34% | 35% | 32% | 5.64% | – |
| N#Cc1ccc(C(=O)N2CCOCC2)cc1 [E10] | 0% | -13% | -3% | -23% | 9% | 10% | 7% | 37% | 37% | 37% | 33% | 41% | – | – |
| O=C1CCCc2occc21 [B3] | 0% | -4.51% | -9% | 0% | 0% | 8% | -14% | 34% | 34% | 34% | 37% | 30% | – | -2.76% |
| CCN(CC)c1cccc(C)c1 [E4] | – | 8.49% | 13% | 4% | 7.56% | 12% | 2.81% | 31% | 31% | 31% | 31% | 32% | 8.49% | – |
| O=C(c1ccccc1)N1CCC(CO)CC1 [H9] | – | 11% | 15% | 7% | 12% | 11% | 13% | 32% | 32% | 32% | 29% | 36% | 11% | – |
| O=C(Nc1ccccc1)C1CC1 [F6] | – | 12% | 10% | 14% | 0% | -1.55% | -4% | 41% | 41% | 41% | 40% | 42% | 12% | -2.69% |
| O=C1NC(=O)C2(CCc3ccccc32)N1 (centres unmarked) [B7] | 0% | -12% | -22% | -1.44% | 3.8% | 10% | -2.31% | 32% | 32% | 32% | 32% | 31% | – | – |
| CCc1nccn1CC(=O)O [G11] | – | 8.43% | 3.26% | 14% | 0% | -14% | 8% | 0% | -2% | 0% | -9% | 5% | 8.43% | -3.32% |
| Cc1ccc(-c2ccc(O)cc2)cc1 [D7] | 0% | -20% | -25% | -14% | 0% | 2.16% | -17% | 45% | 45% | 45% | 52% | 38% | – | -7.45% |
| O=C(CN1CCNCC1)c1ccccc1 [E5] | – | 6% | 9.52% | 3% | 8% | 14% | 3% | 49% | 49% | 49% | 45% | 54% | 6% | – |
| Oc1nnc(-c2ccccc2)o1 [F7] | 0% | -4% | 1.6% | -10% | 1% | -12% | 14% | 14% | 14% | 14% | 15% | 14% | – | – |
| CC1C(=O)NC(=O)N1c1ccc(Cl)cc1 (centres unmarked) [E3] | 0% | -4% | 5% | -13% | 17% | 19% | 14% | 43% | 43% | 43% | 41% | 44% | – | – |
| O=c1[nH]ncc2c1oc1ccccc12 [B6] | 0% | -6.46% | -14% | 0.625% | 0% | 3.34% | -11% | 26% | 26% | 26% | 18% | 34% | – | -4% |
| NC(c1ccccc1)c1ccccc1 [C3] | 0% | -12% | -22% | -1.84% | 0% | -16% | -1% | 25% | 25% | 25% | 16% | 33% | – | -9% |
